Test results: ChEMBL document CHEMBL3885861, “Open TG-GATES”

Species: Rattus norvegicus
Test: Open TG-GATES - Regimen: Single
Format: toxicity, organism-based, Sprague-Dawley
Design: regimen Single, gender Male, age 6 weeks
Conditions: in vivo, po, 50 mg/kg, route gavage, dose level Low; for APTT / Bas / Eos / Fbg / Hb / Ht / Lym / MCH / MCHC / MCV / Mono / Neu / PT / Plat / RBC / Ret / WBC: tissue Blood; for KIDNEY_L / KIDNEY_R / KIDNEY_TOTAL: tissue Kidney; for LIVER: tissue Liver; for A/G / ALP / ALT / AST / BUN / CRE / Ca / Cl / DBIL / GLC / IP / K / LDH / Na / PL / RALB / TBIL / TC / TG / TP / gamma-GTP: tissue Plasma

CN1C(=O)CCS(=O)(=O)C1c1ccc(Cl)cc1 (configuration not stated) [CHLORMEZANONE]
TERMINAL_BW (3 h): 228.4 g | APTT (3 h): 16.7 s | Bas (3 h): 0% | Eos (3 h): 1% | Fbg (3 h): 319.2 mg/dL | Hb (3 h): 13.2 g/dL | Ht (3 h): 39.3% | Lym (3 h): 73.8% | MCH (3 h): 21.6 pg | MCHC (3 h): 33.6% | MCV (3 h): 64.3 fL | Mono (3 h): 4% | Neu (3 h): 20.6% | PT (3 h): 13 s | Plat (3 h): 111.8 x10_4/uL | RBC (3 h): 611.6 x10_4/ul | Ret (3 h): 9.4% | WBC (3 h): 84.7 x10_2/uL | KIDNEY_L (3 h): 0.9 g | KIDNEY_R (3 h): 0.9 g | KIDNEY_TOTAL (3 h): 1.9 g | LIVER (3 h): 10.4 g | A/G (3 h): 0.9 | ALP (3 h): 1492 IU/L | ALT (3 h): 52.6 IU/L | AST (3 h): 80.2 IU/L | BUN (3 h): 8.8 mg/dL | CRE (3 h): 0.2 mg/dL | Ca (3 h): 11.6 mg/dL | Cl (3 h): 105.2 meq/L | DBIL (3 h): 0.018 mg/dL | GLC (3 h): 187 mg/dL | IP (3 h): 9.6 mg/dL | K (3 h): 4 meq/L | LDH (3 h): 60.2 IU/L | Na (3 h): 141.6 meq/L | PL (3 h): 155 mg/dL | RALB (3 h): 2.7 g/dL | TBIL (3 h): 0.046 mg/dL | TC (3 h): 83.6 mg/dL | TG (3 h): 75.4 mg/dL | TP (3 h): 5.7 g/dL | gamma-GTP (3 h): 1 IU/L | TERMINAL_BW (6 h): 227.2 g | APTT (6 h): 15 s | Bas (6 h): 0% | Eos (6 h): 0.8% | Fbg (6 h): 321.2 mg/dL | Hb (6 h): 13.8 g/dL | Ht (6 h): 40.9% | Lym (6 h): 76.8% | MCH (6 h): 21.6 pg | MCHC (6 h): 33.7% | MCV (6 h): 64.2 fL | Mono (6 h): 3.4% | Neu (6 h): 18.2% | PT (6 h): 13.2 s | Plat (6 h): 115.1 x10_4/uL | RBC (6 h): 637.2 x10_4/ul | Ret (6 h): 7.3% | WBC (6 h): 83.9 x10_2/uL | KIDNEY_L (6 h): 0.9 g | KIDNEY_R (6 h): 1 g | KIDNEY_TOTAL (6 h): 1.9 g | LIVER (6 h): 9.5 g | A/G (6 h): 0.9 | ALP (6 h): 1829.6 IU/L | ALT (6 h): 38.6 IU/L | AST (6 h): 71.4 IU/L | BUN (6 h): 8.8 mg/dL | CRE (6 h): 0.2 mg/dL | Ca (6 h): 11.6 mg/dL | Cl (6 h): 107 meq/L | DBIL (6 h): 0.016 mg/dL | GLC (6 h): 189.8 mg/dL | IP (6 h): 10.3 mg/dL | K (6 h): 4.1 meq/L | LDH (6 h): 56.8 IU/L | Na (6 h): 143.2 meq/L | PL (6 h): 153 mg/dL | RALB (6 h): 2.7 g/dL | TBIL (6 h): 0.038 mg/dL | TC (6 h): 78 mg/dL | TG (6 h): 68.4 mg/dL | TP (6 h): 5.7 g/dL | gamma-GTP (6 h): 1.2 IU/L | TERMINAL_BW (9 h): 227.8 g | APTT (9 h): 14.1 s | Bas (9 h): 0% | Eos (9 h): 0.8% | Fbg (9 h): 351 mg/dL | Hb (9 h): 13.4 g/dL | Ht (9 h): 39.3% | Lym (9 h): 77.8% | MCH (9 h): 22.3 pg | MCHC (9 h): 34.1% | MCV (9 h): 65.5 fL | Mono (9 h): 2.2% | Neu (9 h): 18% | PT (9 h): 13.5 s | Plat (9 h): 121.2 x10_4/uL | RBC (9 h): 601.6 x10_4/ul | Ret (9 h): 8% | WBC (9 h): 76.9 x10_2/uL | KIDNEY_L (9 h): 1 g | KIDNEY_R (9 h): 0.9 g | KIDNEY_TOTAL (9 h): 1.9 g | LIVER (9 h): 9.2 g | A/G (9 h): 0.9 | ALP (9 h): 1623.2 IU/L | ALT (9 h): 34.4 IU/L | AST (9 h): 71.6 IU/L | BUN (9 h): 9.4 mg/dL | CRE (9 h): 0.2 mg/dL | Ca (9 h): 11.2 mg/dL | Cl (9 h): 106.4 meq/L | DBIL (9 h): 0.02 mg/dL | GLC (9 h): 191.4 mg/dL | IP (9 h): 11.9 mg/dL | K (9 h): 4 meq/L | LDH (9 h): 57.6 IU/L | Na (9 h): 143.8 meq/L | PL (9 h): 121.4 mg/dL | RALB (9 h): 2.6 g/dL | TBIL (9 h): 0.038 mg/dL | TC (9 h): 67.2 mg/dL | TG (9 h): 50.4 mg/dL | TP (9 h): 5.5 g/dL | gamma-GTP (9 h): 1 IU/L | TERMINAL_BW (24 h): 234.7 g | APTT (24 h): 16.1 s | Bas (24 h): 0% | Eos (24 h): 0.8% | Fbg (24 h): 278.2 mg/dL | Hb (24 h): 13.6 g/dL | Ht (24 h): 39.7% | Lym (24 h): 75% | MCH (24 h): 21.7 pg | MCHC (24 h): 34.4% | MCV (24 h): 63.3 fL | Mono (24 h): 3.4% | Neu (24 h): 20.2% | PT (24 h): 13 s | Plat (24 h): 113.6 x10_4/uL | RBC (24 h): 626.8 x10_4/ul | Ret (24 h): 7.6% | WBC (24 h): 72.4 x10_2/uL | KIDNEY_L (24 h): 1.1 g | KIDNEY_R (24 h): 1 g | KIDNEY_TOTAL (24 h): 2.1 g | LIVER (24 h): 11.3 g | A/G (24 h): 0.9 | ALP (24 h): 1615.6 IU/L | ALT (24 h): 45 IU/L | AST (24 h): 77.4 IU/L | BUN (24 h): 14.8 mg/dL | CRE (24 h): 0.2 mg/dL | Ca (24 h): 11.1 mg/dL | Cl (24 h): 106.2 meq/L | DBIL (24 h): 0.02 mg/dL | GLC (24 h): 182.2 mg/dL | IP (24 h): 7.4 mg/dL | K (24 h): 4.2 meq/L | LDH (24 h): 83 IU/L | Na (24 h): 142 meq/L | PL (24 h): 137.8 mg/dL | RALB (24 h): 2.6 g/dL | TBIL (24 h): 0.024 mg/dL | TC (24 h): 80.4 mg/dL | TG (24 h): 92.4 mg/dL | TP (24 h): 5.6 g/dL | gamma-GTP (24 h): 1.2 IU/L
